# Entries after “also recorded” stand apart in the source; their conditions may differ. No end group written: not given here.
# Tests used:
# [1] = tested on: peptide-pulsed TISI cells; assay: IFN-gamma ELISA of expanded CTL lines; format: cell-based, human; settings: CTL lines stimulated with the peptide; target cells pulsed with peptide vs without peptide pulse
# Procedure: CTLs were expanded in culture using the method similar to the one described by Riddell et al. (Walter E A et al., N Engl J Med 1995 October 19, 333(16): 1038-44; Riddell S R et al., Nat Med 1996 February, 2(2): 216-23). A total of 5×10^4 CTLs were suspended in 25 ml of AIM-V/5% AS medium with 2 kinds of human B-lymphoblastoid cell lines, inactivated by Mitomycin C, in the presence of 40 ng/ml of anti-CD3 monoclonal antibody (Pharmingen). One day after initiating the cultures, 120 IU/ml of IL-2 were added to the cultures. The cultures were fed with fresh AIM-V/5% AS medium containing 30 IU/ml of IL-2 on days 5, 8 and 11 (Tanaka H et al., Br J Cancer 2001 Jan 5, 84(1): 94-9; Umano Y et al., Br J Cancer 2001 Apr. 20, 84(8): 1052-7; Uchida N et al., Clin Cancer Res 2004 Dec. 15, 10(24): 8577-86; Suda T et al., Cancer Sci 2006 May, 97(5): 411-9; Watanabe T et al., Cancer Sci 2005 August, 96(8): 498-506).
# (§1) Peptide-pulsed TISI (1×10^4/well) was prepared as stimulator cells. Cultured cells in 48 wells were used as responder cells. IFN-gamma ELISPOT assay and IFN-gamma ELISA were performed under manufacture procedure.
# [2] = tested on: COS7 cells transfected with SEMA5B and HLA-A*2402; assay: Specific CTL activity against target cells expressing SEMA5B and HLA-A*2402; format: cell-based, African green monkey; settings: CTL line established with the peptide
# Text: The cDNA encoding an open reading frame of target genes or HLA-A*2402 was amplified by PCR. The PCR-amplified product was cloned into expression vector. The plasmids were transfected into COS7, which is the target genes and HLA-A*2402-null cell line, using lipofectamine 2000 (Invitrogen) according to the manufacturer's recommended procedures. After 2 days from transfection, the transfected cells were harvested with versene (Invitrogen) and used as the stimulator cells (5×10^4 cells/well) for CTL activity assay.
# The established CTL line raised against SEMA5B-A24-10-290 (SEQ ID NO: 41) peptide was examined for the ability to recognize target cells that express SEMA5B and HLA-A*2402 molecule. COS7 cells transfected with both the full SEMA5B and HLA-A*2402 gene (a specific model for the target cells that express SEMA5B and HLA-A*2402 gene) were prepared as a stimulator cells, and COS7 cells transfected with either full length of SEMA5B or HLA-A*2402 were used as the controls.
# [3] = tested on: peptide-pulsed TISI cells; assay: In vitro CTL induction with peptide-pulsed DCs, IFN-gamma ELISPOT assay; format: cell-based, human; settings: for Peptide specific CTL activity (IFN-gamma production), IFN-gamma ELISPOT: CTLs induced with the peptide, target cells pulsed with peptide vs not pulsed (control); for CTL inducibility: summary statement in the description
# Text: Monocyte-derived dendritic cells (DCs) were used as antigen-presenting cells to induce cytotoxic T lymphocyte (CTL) responses against peptides presented on human leukocyte antigen (HLA). DCs were generated in vitro as described elsewhere (Nakahara S et al., Cancer Res 2003 Jul. 15, 63(14): 4112-8). Specifically, peripheral blood mononuclear cells isolated from a normal volunteer (HLA-A*2402 positive) by Ficoll-Paque plus (Pharmacia) solution were separated by adherence to a plastic tissue culture dish (Becton Dickinson) so as to enrich them as the monocyte fraction. The monocyte-enriched population was cultured in the presence of 1000 IU/ml of granulocyte-macrophage colony-stimulating factor (R&D System) and 1000 IU/ml of interleukin (IL)-4 (R&D System) in AIM-V Medium (Invitrogen) containing 2% heatinactivated autologous serum (AS). After 7 days of culture, the cytokine-induced DCs were pulsed with 20 micro g/ml of each of the synthesized peptides in the presence of 3 micro g/ml of beta 2-microglobulin for 3 hr at 37 degrees C. in AIM-V Medium. The generated cells appeared to express DC-associated molecules, such as CD80, CD83, CD86 and HLA class II, on their cell surfaces (data not shown). These peptide-pulsed DCs were then inactivated by X ray-irradiated (20 Gy) and mixed at a 1:20 ratio with autologous CD8+ T cells, obtained by positive selection with CD8 Positive Isolation Kit (Dynal). These cultures were set up in 48-well plates (Corning); each well contained 1.5×10^4 peptide-pulsed DCs, 3×10^5 CD8+ T cells and 10 ng/ml of IL-7 (R&D System) in 0.5 ml of AIM-V/2% AS medium. Three days later, these cultures were supplemented with IL-2 (CHIRON) to a final concentration of 20 IU/ml. On day 7 and 14, the T cells were further stimulated with the autologous peptide-pulsed DCs. The DCs were prepared each time by the same way described above. CTL was tested against peptide-pulsed TISI cells after the 3rd round of peptide stimulation on day 21 (Tanaka H et al., Br J Cancer 2001 Jan 5, 84(1): 94-9; Umano Y et al., Br J Cancer 2001 Apr. 20, 84(8): 1052-7; Uchida N et al., Clin Cancer Res 2004 Dec. 15, 10(24): 8577-86; Suda T et al., Cancer Sci 2006 May, 97(5): 411-9; Watanabe T et al., Cancer Sci 2005 August, 96(8): 498-506).
# as §1
# [4] = tested on: peptide-pulsed TISI cells; assay: IFN-gamma ELISA of CTL clones established by limiting dilution; format: cell-based, human; settings: CTL clones from limiting dilution, target cells pulsed with peptide vs not pulsed
# Procedure: The dilutions were made to have 0.3, 1, and 3 CTLs/well in 96 round-bottomed micro titer plate (Nalge Nunc International). CTLs were cultured with 1×10^4 cells/well of 2 kinds of human B-lymphoblastoid cell lines, 30 ng/ml of anti-CD3 antibody, and 125 IU/ml of IL-2 in a total of 150 micro 1/well of AIM-V Medium containing 5% AS. 50 micro 1/well of IL-2 were added to the medium 10 days later so to reach a final concentration of 125 IU/ml IL-2. CTL activity was tested on the 14th day, and CTL clones were expanded using the same method as described above (Uchida N et al., Clin Cancer Res 2004 Dec. 15, 10(24): 8577-86; Suda T et al., Cancer Sci 2006 May, 97(5): 411-9; Watanabe T et al., Cancer Sci 2005 August, 96(8): 498-506).
# as §1
sequence,measurement,setting,value
"AYDIGLFAYF [SEQ ID NO: 41, AYDIGLFAYF]","IFN-gamma production of CTL lines, IFN-gamma ELISA",[1],potent IFN-gamma production
same,Specific CTL activity against control COS7 cells expressing either HLA-A*2402 or SEMA5B,[2]; controls,no significant specific CTL activity
same,Specific CTL activity against COS7 cells transfected with both SEMA5B and HLA-A*2402,[2]; listed as SEMA5B-A24-10-290,potent CTL activity; also recorded: specific CTL activity
same,"Peptide specific CTL activity (IFN-gamma production), IFN-gamma ELISPOT",[3]; listed as SEMA5B-A24-10-290,potent IFN-gamma production; also recorded: significant and specific CTL activity
same,CTL inducibility,[3],particularly high CTL inducibility
same,"IFN-gamma production of CTL clones, IFN-gamma ELISA",[4]; listed as SEMA5B-A24-10-290,potent IFN-gamma production
"AYRSQGACL [SEQ ID NO: 20, AYRSQGACL]","Peptide specific CTL activity (IFN-gamma production), IFN-gamma ELISPOT",[3]; listed as SEMA5B-A24-9-558,potent IFN-gamma production; also recorded: significant and specific CTL activity
same,CTL inducibility,[3],particularly high CTL inducibility
"CFLGSGLLTL [SEQ ID NO: 47, CFLGSGLLTL]","Peptide specific CTL activity (IFN-gamma production), IFN-gamma ELISPOT",[3]; listed as SEMA5B-A24-10-1044,potent IFN-gamma production; also recorded: significant and specific CTL activity
same,CTL inducibility,[3],particularly high CTL inducibility
"CYLEELHVL [SEQ ID NO: 2, CYLEELHVL]","IFN-gamma production of CTL lines, IFN-gamma ELISA",[1],potent IFN-gamma production
same,"Peptide specific CTL activity (IFN-gamma production), IFN-gamma ELISPOT",[3]; listed as SEMA5B-A24-9-512,potent IFN-gamma production; also recorded: significant and specific CTL activity
same,CTL inducibility,[3],particularly high CTL inducibility
same,"IFN-gamma production of CTL clones, IFN-gamma ELISA",[4]; listed as SEMA5B-A24-9-512,potent IFN-gamma production
"FYYNELQSAF [SEQ ID NO: 40, FYYNELQSAF]","Peptide specific CTL activity (IFN-gamma production), IFN-gamma ELISPOT",[3]; listed as SEMA5B-A24-10-354,potent IFN-gamma production; also recorded: significant and specific CTL activity
same,CTL inducibility,[3],particularly high CTL inducibility
"IFWASWGSW [SEQ ID NO: 8, IFWASWGSW]","Peptide specific CTL activity (IFN-gamma production), IFN-gamma ELISPOT",[3]; listed as SEMA5B-A24-9-723,potent IFN-gamma production; also recorded: significant and specific CTL activity
same,CTL inducibility,[3],particularly high CTL inducibility
"IGLFAYFFL [SEQ ID NO: 10, IGLFAYFFL]","IFN-gamma production of CTL lines, IFN-gamma ELISA",[1],potent IFN-gamma production
same,"Peptide specific CTL activity (IFN-gamma production), IFN-gamma ELISPOT",[3]; listed as SEMA5B-A24-9-293,potent IFN-gamma production; also recorded: significant and specific CTL activity
same,CTL inducibility,[3],particularly high CTL inducibility
"KWLNEPNFV [SEQ ID NO: 9, KWLNEPNFV]","Peptide specific CTL activity (IFN-gamma production), IFN-gamma ELISPOT",[3]; listed as SEMA5B-A24-9-280,potent IFN-gamma production; also recorded: significant and specific CTL activity
same,CTL inducibility,[3],particularly high CTL inducibility
"LYAATVIDF [SEQ ID NO: 1, LYAATVIDF]","Peptide specific CTL activity (IFN-gamma production), IFN-gamma ELISPOT",[3],no specific IFN-gamma production
"LYIGTESGTI [SEQ ID NO: 54, LYIGTESGTI]","Peptide specific CTL activity (IFN-gamma production), IFN-gamma ELISPOT",[3]; listed as SEMA5B-A24-10-489,potent IFN-gamma production; also recorded: significant and specific CTL activity
same,CTL inducibility,[3],particularly high CTL inducibility
"PYSEIPVIL [SEQ ID NO: 3, PYSEIPVIL]","IFN-gamma production of CTL lines, IFN-gamma ELISA",[1],potent IFN-gamma production
same,"Peptide specific CTL activity (IFN-gamma production), IFN-gamma ELISPOT",[3]; listed as SEMA5B-A24-9-1010,potent IFN-gamma production; also recorded: significant and specific CTL activity
same,CTL inducibility,[3],particularly high CTL inducibility
same,"IFN-gamma production of CTL clones, IFN-gamma ELISA",[4]; listed as SEMA5B-A24-9-1010,potent IFN-gamma production
"RFSHLVVDL [SEQ ID NO: 13, RFSHLVVDL]","Peptide specific CTL activity (IFN-gamma production), IFN-gamma ELISPOT",[3]; listed as SEMA5B-A24-9-470,potent IFN-gamma production; also recorded: significant and specific CTL activity
same,CTL inducibility,[3],particularly high CTL inducibility
"VFMCGTNAF [SEQ ID NO: 4, VFMCGTNAF]","Peptide specific CTL activity (IFN-gamma production), IFN-gamma ELISPOT",[3]; listed as SEMA5B-A24-9-196,potent IFN-gamma production; also recorded: significant and specific CTL activity
same,CTL inducibility,[3],particularly high CTL inducibility

# — US20150322112A1, “SEMA5B PEPTIDES AND VACCINES CONTAINING THE SAME” (ONCOTHERAPY SCIENCE, INC., priority 2012, published 2015)
